{
  "source": "patent US20070179143A1",
  "about": "(priority 2003, published 2007)",
  "key": {"SK-MEL-2": {"tested_on": "SK-MEL-2", "test": "Cytotoxicity test to cancer cell lines (SRB method), SK-MEL-2", "assay_type": "cell-based", "conditions": "Homo sapiens, SK-MEL-2, 48 h, read-out: Cytotoxicity ED50 SK-MEL-2"}, "SK-OV-3": {"tested_on": "SK-OV-3", "test": "Cytotoxicity test to cancer cell lines (SRB method), SK-OV-3", "assay_type": "cell-based", "conditions": "Homo sapiens, SK-OV-3, 48 h, read-out: Cytotoxicity ED50 SK-OV-3"}, "in vivo": {"test": "in vivo", "conditions": "both, ICR, mouse, in vivo", "method": "(§1) 5-week-old ICR mice having the weight of 25-35 g (SPF, SLC Co. Japan) were used as test animals. A pair of female and male of the mice was given for the test of each compound. Group T2, T3, T4 and T5 were arranged (10 animals per group) for the test of acute toxicity of the compound prepared in the Example 12. […] Control group (T1) was administered with only a solvent without the compound of the Example 12.\n(§2) For comparison, colchicine was injected in the test animals by the same method as described in the above. The group treated with colchicine was composed of 6 mice.\n(§3) Taxol produced by Bristol Myers Sqibb Co. was also used for comparison, and the injection and the test of acute toxicity were performed by the same method as described in the above."}, "ICR mice": {"tested_on": "ICR mice", "test": "in vivo", "conditions": "for Death Total: ICR mice, 7 days, deaths/animals", "method": "as §1, §2, §3"}, "HCT-15": {"tested_on": "HCT-15", "test": "Cytotoxicity test to cancer cell lines (SRB method), HCT-15", "conditions": "Homo sapiens, HCT-15, 48 h, read-out: Cytotoxicity ED50 HCT15"}, "MCF7": {"tested_on": "MCF7", "test": "Cytotoxicity test to cancer cell lines (SRB method), MCF7", "conditions": "read-out: Cytotoxicity ED50 MCF-7, MCF-7, 48 hours", "procedure": "Cytotoxicity to A549 (Korea Research Institute of Chemical Technology), SK-OV-3 (Korea Research Institute of Chemical Technology), SK-MEL-2 (Korea Research Institute of Chemical Technology), HCT-15 (Korea Research Institute of Chemical Technology) and MCF7 (Korean Cell Line Bank, Seoul National University School of medicine) cells was measured by Sulforhodamin-B (SRB) method (1989, National Cancer Institute (NCI)) which was developed for the measurement of in vitro anticancer activity of a drug. Cells were separated using 0.25% trypsin-EDTA solution, leading to the preparation of a cell suspension by 5×10^318 2×10^4 cells/well. Then, the suspension was distributed into a 96 well plate by 100 μl/well, which was cultured in a 37° C., 5% CO2 incubator for 24 hours. Compounds prepared in examples of the present invention were used as a sample. Precisely, the compound was dissolved in dimethylsulfoxide and diluted with RPMI 1640 medium before being used as a sample. The final concentration of the sample used varied ranging 1 μM˜0.00001 μM. The medium was removed from the 96 well plate and then diluted sample solution was added by 100 μl/well, followed by further culture in a 37° C., 5% CO2 incubator for 48 hours. Tz (time zero) plate was collected from the point of adding the sample. Upon completing the culture, the medium was removed from each well along with Tz plate, then 10% trichloroacetic acid (TCA) was added by 100 μl/well. The plate was left at 4° C. for 1 hour to let cells be fixed on the floor of the plate. After cells were fixed completely, the plate was washed with water 5-6 times to remove the remaining trichloroacetic acid solution completely and moisture was completely dried at room temperature. 0.4% Sulforhodamine-B was dissolved in 1% acetic acid solution to prepare a staining solution. Cells were stained for 30 minutes with a dye added by 100 μl to each well of the completely dried plate. Then, the plate was washed with 1% acetic acid solution 5-6 times to remove sulforhodamine-B remained uncombined with cells. Then, the plate was dried at room temperature. 10 mM Tris solution was added by 100 μ/well thereto to dissolve the dye, and optical density (OD) was measured at 520 nm with a micro plate reader.\nED50 (concentration that inhibits cancer cell growth 50%, 5.0% effective dose, nM/ml) of the sample to cancer cell was calculated as follows. OD value at the point of beginning the culture with the sample was determined as Tz (time zero) value. OD value of a well to be cultured without the sample was determined as a control value (C). OD value of a well pretreated with the sample was determined as experimental value (T). After calculating Tz, C and T, cytotoxicity of the sample was measured by the below <Mathematical Formula 1>. T≦Tz, (T−Tz)/(C−Tz)×100 T>Tz, (T−Tz)/Tz×10,0 <Mathematical Formula 1>\nED50, the concentration that can inhibit cancer cell growth by 50%, was calculated by using a regression analysis of lotus program based on the degree of cytotoxicity obtained by the <Mathematical Formula 1>."}, "[1]": {"test": "Body weight change of NCI-H460 xenografted nude mice", "assay_type": "in vivo, BALB/c nude mouse"}, "[2]": {"tested_on": "human lung cancer cell line NCI-H460", "test": "Inhibiting effect on tumor growth, NCI-H460 xenografted nude mice", "procedure": "Samples for the experiment were stored in a refrigerator all the time. […] The prepared sample is subject to be precipitated, so that tip sonication was performed right before the administration to disperse it well.\n7 week-old female S.P.F. BALB/c nude mice, provided by Charles River Co., Japan, were used as test animals. The test animals were adapted in a Hepa-filter room over a week before the test. The temperature was 21±2° C., humidity was 55±5% and 12-hour light and dark cycle was automatically repeated in that lab. Solid feed (Cheiluedang) was sterilized by radioactive rays and drinking water was also sterilized by autoclave. Feed and water were taken by the animal freely. Cancer cell line used in this experiment was NCI-H460 (human lung tumor cell line) provided by Korea Research Institute of Bioscience and Biotechnology.\nThe tumor cell line, stored in liquid nitrogen, was thawed and cultured in a 37° C., 5% CO2 incubator for a required time. Upon completing the culture, all the cells were recovered and cell concentration of the culture fluid was adjusted using PBS to 3×10^7 cells/ml. The adjusted cell culture solution was injected hypodermically into armpit between right shoulder girdle and chest wall by 0.3 ml per mouse. From the next day of grafting, NCI-H460 xenografted nude mice were administered intraperitoneal everyday with the sample solution by 0.2 ml/20 g of weight, once a day.\nAfter the grafting of tumor cells, the volume of a tumor in each individual was measured in three dimensions by using a vernier caliper, which was represented in the below <Mathematical Formula 2>. Tumor volume=(length×width×height)/2 <Mathematical Formula 2>\nBody weight changes of animal were measured three times a week. Each xenografted nude mouse was sacrificed to separate a tumor, which was then weighed."}, "A549": {"tested_on": "A549", "test": "Cytotoxicity test to cancer cell lines (SRB method), A549", "conditions": "Homo sapiens, A549, 48 h, read-out: Cytotoxicity ED50 A549"}, "HUVEC cells": {"tested_on": "HUVEC cells", "test": "Capillary-like tube formation assay", "assay_type": "cell-based", "conditions": "HUVEC on matrigel, 24 hours", "method": "Matrigel used in this experiment was a product of BioCoat. Matrigel was thawed in a refrigerator for 24 hours before use. Thawing matrigel, 96 well plate and yellow tip were put on ice. Then, matrigel was distributed into each well of the plate by 40 μl. The polymerization of the plate was performed in a 37° C. incubator for 30 minutes. Each well of the plate was inoculated with 180 μl of HUVEC cell solution (2×10^4 cells/m;) along with 20 μl of the compound of the Example 12 in serum-free media (0.3, 1,3, 10 and 30 μg/ml), followed by further culture for 24 hours.\nTube formation was observed under a microscope to investigate inhibition activity of angiogenesis.\nFumagilin and doxorubicin were used as a positive control."}, "[3]": {"conditions": "1 mg/kg intraperitoneal once a day"}, "[4]": {"conditions": "3 mg/kg intraperitoneal once a day"}, "[5]": {"conditions": "10 mg/kg intraperitoneal once a day"}},
  "data": [
    {"compound": "COc1cc2c(c(OC)c1OC)-c1ccc(SC)c(=O)cc1[C@@H](NC(=O)c1cc(F)cc(CO[N+](=O)[O-])c1)CC2", "note": "[Example 12, 3-fluoro-5-nitrooxymethyl-N-[(7S)-1,2,3-trimethoxy-10-methylsulfanyl-9-oxo-5,6,7,9-tetrahydro-benzo[a]heptalen-7-yl]-benzamide]", "values": [
      {"measurement": "EC50", "setting": "SK-MEL-2", "value": 0.11, "unit": "nM"},
      {"measurement": "EC50", "setting": "SK-OV-3", "value": 0.27, "unit": "nM"},
      {"measurement": "LD50", "setting": "in vivo", "value": 60, "unit": "mg/kg"},
      {"measurement": "Death Total", "setting": "ICR mice; 30 mg/kg into the abdominal cavity", "value": "0/10"},
      {"measurement": "Death Total", "setting": "ICR mice; 40 mg/kg into the abdominal cavity", "value": "0/10"},
      {"measurement": "Death Total", "setting": "ICR mice; 50 mg/kg into the abdominal cavity", "value": "0/10"},
      {"measurement": "Death Total", "setting": "ICR mice; 60 mg/kg into the abdominal cavity", "value": "0/10"},
      {"measurement": "times as weak toxicity as that of colchicine", "setting": "ICR mice; ratio of LD50", "value": 30, "unit": "times"},
      {"measurement": "EC50", "setting": "HCT-15", "value": 0.05, "unit": "nM"},
      {"measurement": "EC50", "setting": "MCF7", "value": 0.03, "unit": "nM"},
      {"measurement": "Body weight Change Day 1", "setting": "[1]; [3]", "value": "100.0 ± 0.0", "unit": "%"},
      {"measurement": "Body weight Change Day 3", "setting": "[1]; [3]", "value": "105.0 ± 1.4", "unit": "%"},
      {"measurement": "Body weight Change Day 7", "setting": "[1]; [3]", "value": "104.2 ± 5.3", "unit": "%"},
      {"measurement": "Body weight Change Day 9", "setting": "[1]; [3]", "value": "99.6 ± 4.4", "unit": "%"},
      {"measurement": "Body weight Change Day 11", "setting": "[1]; [3]", "value": "97.5 ± 3.6", "unit": "%"},
      {"measurement": "Body weight Change Day 14", "setting": "[1]; [3]", "value": "98.3 ± 3.2", "unit": "%"},
      {"measurement": "Body weight Change Day 1", "setting": "[1]; [4]", "value": "100.0 ± 0.0", "unit": "%"},
      {"measurement": "Body weight Change Day 3", "setting": "[1]; [4]", "value": "102.8 ± 2.0", "unit": "%"},
      {"measurement": "Body weight Change Day 7", "setting": "[1]; [4]", "value": "101.8 ± 4.2", "unit": "%"},
      {"measurement": "Body weight Change Day 9", "setting": "[1]; [4]", "value": "99.3 ± 3.3", "unit": "%"},
      {"measurement": "Body weight Change Day 11", "setting": "[1]; [4]", "value": "99.1 ± 2.8", "unit": "%"},
      {"measurement": "Body weight Change Day 14", "setting": "[1]; [4]", "value": "94.5 ± 3.9", "unit": "%"},
      {"measurement": "Body weight Change Day 1", "setting": "[1]; [5]", "value": "100.0 ± 0.0", "unit": "%"},
      {"measurement": "Body weight Change Day 3", "setting": "[1]; [5]", "value": "103.9 ± 0.9", "unit": "%"},
      {"measurement": "Body weight Change Day 7", "setting": "[1]; [5]", "value": "92.2 ± 3.5", "unit": "%"},
      {"measurement": "Body weight Change Day 9", "setting": "[1]; [5]", "value": "89.4 ± 2.0", "unit": "%"},
      {"measurement": "Body weight Change Day 11", "setting": "[1]; [5]", "value": "92.3 ± 2.9", "unit": "%"},
      {"measurement": "Body weight Change Day 14", "setting": "[1]; [5]", "value": "93.4 ± 0", "unit": "%"},
      {"measurement": "decrease of the weight of the mouse", "setting": "[1]; comparing to solvent only or positive control", "value": "about 10%"},
      {"measurement": "Tumor volume Day 0", "setting": "[2]; [3]", "value": "0.0 ± 0.0"},
      {"measurement": "Tumor volume Day 4", "setting": "[2]; [3]", "value": "20.7 ± 3.1"},
      {"measurement": "Tumor volume Day 7", "setting": "[2]; [3]", "value": "49.2 ± 12.2"},
      {"measurement": "Tumor volume Day 9", "setting": "[2]; [3]", "value": "78.1 ± 13.0"},
      {"measurement": "Tumor volume Day 11", "setting": "[2]; [3]", "value": "146.5 ± 8.8"},
      {"measurement": "Tumor Weight Day 14", "setting": "[2]; [3]", "value": "950.9 ± 174.8", "unit": "mg"},
      {"measurement": "Tumor volume Day 14", "setting": "[2]; [3]", "value": "299.3 ± 41.5"},
      {"measurement": "Tumor volume Day 0", "setting": "[2]; [4]", "value": "0.0 ± 0.0"},
      {"measurement": "Tumor volume Day 4", "setting": "[2]; [4]", "value": "16.9 ± 5.1"},
      {"measurement": "Tumor volume Day 7", "setting": "[2]; [4]", "value": "31.2 ± 11.7"},
      {"measurement": "Tumor volume Day 9", "setting": "[2]; [4]", "value": "49.7 ± 15.8"},
      {"measurement": "Tumor volume Day 11", "setting": "[2]; [4]", "value": "96.1 ± 26.1"},
      {"measurement": "Tumor Weight Day 14", "setting": "[2]; [4]", "value": "714.5 ± 103.8", "unit": "mg"},
      {"measurement": "Tumor volume Day 14", "setting": "[2]; [4]", "value": "206.8 ± 48.0"},
      {"measurement": "Tumor volume Day 0", "setting": "[2]; [5]", "value": "0.0 ± 0.0"},
      {"measurement": "Tumor volume Day 4", "setting": "[2]; [5]", "value": "16.1 ± 6.7"},
      {"measurement": "Tumor volume Day 7", "setting": "[2]; [5]", "value": "24.6 ± 9.8"},
      {"measurement": "Tumor volume Day 9", "setting": "[2]; [5]", "value": "35.2 ± 12.9"},
      {"measurement": "Tumor volume Day 11", "setting": "[2]; [5]", "value": "69.4 ± 26.9"},
      {"measurement": "Tumor Weight Day 14", "setting": "[2]; [5]", "value": "390.9 ± 0", "unit": "mg"},
      {"measurement": "Tumor volume Day 14", "setting": "[2]; [5]", "value": "103.0 ± 0"},
      {"measurement": "size and weight of a tumor (in words)", "setting": "[2]; comparing to solvent only (V.C-1, V.C-2) or positive control (taxol, adriamycin)", "value": "remarkably decreased"},
      {"measurement": "EC50", "setting": "A549", "value": 0.05, "unit": "nM"},
      {"measurement": "dosage that totally inhibited angiogenesis", "setting": "HUVEC cells", "value": "over 10 μg/ml"},
      {"measurement": "dosage with angiogenesis inhibition activity", "setting": "HUVEC cells; as good effect as fumagilin at 10 μg/ml", "value": "over 0.3 μg/ml"}
    ]}
  ]
}
